Like-named read-outs stand apart in the source and are kept apart here.
Columns and labels:
M4 muscarinic receptor = target: T1, M4 muscarinic receptor (Homo sapiens, UniProt P08173); experiment: Functional mobilization of intracellular calcium (FLIPR) in M4-CHO cells; assay type: cell-based
T1 construct: expressed in transfected cells; host or cells: CHO (M4-CHO)
T1 sequence (P08173 1-479): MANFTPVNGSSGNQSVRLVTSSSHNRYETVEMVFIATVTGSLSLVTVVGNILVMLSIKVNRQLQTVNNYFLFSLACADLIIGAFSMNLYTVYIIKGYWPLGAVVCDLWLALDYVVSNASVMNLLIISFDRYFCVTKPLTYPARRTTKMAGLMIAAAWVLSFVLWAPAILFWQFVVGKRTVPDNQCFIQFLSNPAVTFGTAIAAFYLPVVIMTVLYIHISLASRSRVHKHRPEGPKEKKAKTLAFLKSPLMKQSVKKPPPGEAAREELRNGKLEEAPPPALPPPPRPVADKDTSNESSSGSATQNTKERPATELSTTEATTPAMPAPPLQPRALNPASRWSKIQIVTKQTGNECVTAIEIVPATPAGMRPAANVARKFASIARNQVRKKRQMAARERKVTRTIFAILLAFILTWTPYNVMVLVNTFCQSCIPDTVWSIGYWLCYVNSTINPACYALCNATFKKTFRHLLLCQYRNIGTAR
Outline: (§1)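 Two modes: direct compound addition for agonism, or 15 min compound pre-incubation (or co-application) before carbachol at EC80 for inhibition. Calcium signal from Fluo-3 AM or Calcium 3 dye in CHO cells, 1 mM probenecid, pH 7.4, read 60 sec at 488/540 nm; DMSO 0.5% final.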

M1 muscarinic receptor = target: T2, M1 muscarinic receptor (Homo sapiens, UniProt P11229); experiment: Functional mobilization of intracellular calcium (FLIPR) in M1-CHO cells; assay type: cell-based
T2 construct: expressed in transfected cells; host or cells: CHO (M1-CHO)
T2 sequence (P11229 1-460): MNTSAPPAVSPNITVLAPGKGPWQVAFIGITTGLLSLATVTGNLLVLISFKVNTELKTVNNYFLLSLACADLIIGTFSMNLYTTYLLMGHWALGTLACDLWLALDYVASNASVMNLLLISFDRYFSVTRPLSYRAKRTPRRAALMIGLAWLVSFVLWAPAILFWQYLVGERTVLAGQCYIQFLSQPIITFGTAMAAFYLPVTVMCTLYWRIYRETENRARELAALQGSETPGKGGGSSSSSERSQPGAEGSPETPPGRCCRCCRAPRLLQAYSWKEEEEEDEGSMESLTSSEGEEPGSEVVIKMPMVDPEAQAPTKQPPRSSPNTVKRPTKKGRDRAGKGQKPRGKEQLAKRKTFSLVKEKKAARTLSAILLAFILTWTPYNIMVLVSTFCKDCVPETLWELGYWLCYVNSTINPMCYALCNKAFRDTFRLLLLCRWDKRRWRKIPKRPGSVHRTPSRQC
Outline: as §1

[1] = M4 receptor, calcium mobilization
[2] = M4 receptor, calcium mobilization, read-out: M4 Efficacy
[3] = M1 receptor, calcium mobilization
[4] = M1 receptor, calcium mobilization, read-out: M1 Efficacy
[5] = Table 4, 100% efficacy is the maximum response obtained with the Carbachol control
[6] = Table 4, modulating M4 receptor
[7] = Table 4, modulating M1 receptor
[8] = Table 4, M4 receptor, calcium mobilization (FLIPR)
[9] = Table 4, M1 receptor, calcium mobilization (FLIPR)

Structure (SMILES) | M4 Activity (M4 muscarinic receptor; [1]) | Emax (M4 muscarinic receptor; [2]) [%] | M1 Activity (M1 muscarinic receptor; [3]) | Emax (M1 muscarinic receptor; [4]) [%] | Emax (M4 muscarinic receptor; [5]) [%] | M4 Activity (M4 muscarinic receptor; [6]) | Emax (M1 muscarinic receptor; [5]) [%] | M1 Activity (M1 muscarinic receptor; [7]) | M4 Activity (M4 muscarinic receptor; [8]) | M1 Activity (M1 muscarinic receptor; [9])
CCCC1CCC(N2CCC3(CC2)CN(C(C)=O)c2ccc(F)cc23)CC1 (stereo not drawn) [compound 131] | xx (activity was measured to be between 0.1 μM and 1.0 μM) | > 85 | xxx (activity was measured to be less than 0.1 μM) | 65 to 85 |  |  |  |  |  | 
CCCOC(=O)N1C2CCC1CC(N1CCC3(CC1)COc1ccc(F)cc13)C2 (stereo not drawn) [compound 283] | x (activity was measured to be greater than 1.0 μM) | 65 to 85 | xx (activity was measured to be between 0.1 μM and 1.0 μM) | 65 to 85 |  |  |  |  |  | 
CCCOC(=O)N1CCC(N2CCC3(CC2)CN(C(C)=O)c2ccc(F)cc23)C1 (stereo not drawn) [compound 632] |  |  |  |  | < 25 | x (activity was measured to be greater than 5.0 μM) | < 25 | x (activity was measured to be greater than 5.0 μM) |  | 
O=C(N[C@H]1CC2(CCN(CCC3CC4CC[C@@H]3C4)CC2)c2ccccc21)c1ccoc1 (stereo partly drawn) [compound 798] |  |  |  |  | < 25 | x (activity was measured to be greater than 5.0 μM) | < 25 | x (activity was measured to be greater than 5.0 μM) |  | 
CN(C)C(=O)N1CC2(CCN(C3CCN(c4cnc5ccccc5n4)CC3)CC2)c2cc(F)ccc21 [compound 914] |  |  |  |  | 25 to 100 |  | 25 to 100 |  | xxx (activity was measured to be less than 2.0 μM) | xxx (activity was measured to be less than 2.0 μM)
O=C(O[C@@H]1CCOC1)N1CC2(CCN(C3CC4CCC(C3)N4C(=O)O[C@@H]3CCOC3)CC2)c2cc(F)ccc21 (stereo partly drawn) [compound 112] | xx (activity was measured to be between 0.1 μM and 1.0 μM) | < 65 | xxx (activity was measured to be less than 0.1 μM) | 65 to 85 |  |  |  |  |  | 
O=C1CC2(CCN(CC3CC4C=CC3C4)CC2)c2cc(Cl)ccc21 (stereo not drawn) [compound 826] |  |  |  |  | 25 to 100 |  | 25 to 100 |  | xxx (activity was measured to be less than 2.0 μM) | xxx (activity was measured to be less than 2.0 μM)
CC(C)OC(=O)N1C2CCC1CC(N1CCC3(CC1)CN(C(=O)C1CC1)c1ccc(F)cc13)C2 (stereo not drawn) [compound 345] | xx (activity was measured to be between 0.1 μM and 1.0 μM) | < 65 | xxx (activity was measured to be less than 0.1 μM) | < 65 |  |  |  |  |  | 
c1ccc2c(c1)CCC21CCN(CC2CCOCC2)CC1 [compound 18] | xx (activity was measured to be between 0.1 μM and 1.0 μM) | > 85 | xxx (activity was measured to be less than 0.1 μM) | < 65 |  |  |  |  |  | 
CCOC(=O)N1CCC(N2CCC3(CC2)CN(C(C)=O)c2c(-c4ccccc4OC)cccc23)CC1 [compound 799] |  |  |  |  | < 25 | x (activity was measured to be greater than 5.0 μM) | < 25 | x (activity was measured to be greater than 5.0 μM) |  | 
Cc1ccc2c(c1)/C(=N/O)CC21CCN(CC2C[C@H]3CCC2C3)CC1 (stereo partly drawn) [compound 935] |  |  |  |  | 25 to 100 |  | 25 to 100 |  | xxx (activity was measured to be less than 2.0 μM) | x (activity was measured to be greater than 5.0 μM)
Cc1ccc2c(c1)C1(CCN(C3CC4CCC3C4)CC1)CN2C(=O)NC(C)C (stereo not drawn) [compound 667] |  |  |  |  | 25 to 100 | x (activity was measured to be greater than 5.0 μM) | < 25 | x (activity was measured to be greater than 5.0 μM) |  | 
Fc1ccc2c(c1)C1(CCN(CC3CCC4CCC3C4)CC1)CN2 (stereo not drawn) [compound 13] | x (activity was measured to be greater than 1.0 μM) | < 65 | xx (activity was measured to be between 0.1 μM and 1.0 μM) | 65 to 85 |  |  |  |  |  | 
CCCC#CCOC(=O)N1C2CCC1CC(N1CCC3(CC1)CN(C(C)=O)c1ccccc13)C2 (stereo not drawn) [compound 820] |  |  |  |  | 25 to 100 |  | 25 to 100 |  | xxx (activity was measured to be less than 2.0 μM) | xxx (activity was measured to be less than 2.0 μM)
CCOC(=O)N1CCC(N2CCC3(CC2)CN(C(C)=O)c2ccc(-c4ccccc4F)cc23)CC1 [compound 146] | xxx (activity was measured to be less than 0.1 μM) | > 85 | xxx (activity was measured to be less than 0.1 μM) | > 85 |  |  |  |  |  | 
CC(=O)N[C@H]1CC2(CCN(C3CCCCCC3)C2)c2ccc(F)cc21 (stereo partly drawn) [compound 823] |  |  |  |  | 25 to 100 |  | 25 to 100 |  | xx (activity was measured to be between 2.0 μM and 5.0 μM) | xx (activity was measured to be between 2.0 μM and 5.0 μM)
CC(=O)N[C@@H]1CC2(CCN([C@@H]3C[C@H]4CC[C@@H]3C4)CC2)c2ccccc21 [compound 323] | x (activity was measured to be greater than 1.0 μM) | 65 to 85 | xx (activity was measured to be between 0.1 μM and 1.0 μM) | 65 to 85 |  |  |  |  |  | 
CCc1cncc(N2CCC(N3CCC4(CC3)CN(C(C)=O)c3ccccc34)CC2)n1 [compound 822] |  |  |  |  | 25 to 100 |  | 25 to 100 |  | xxx (activity was measured to be less than 2.0 μM) | xxx (activity was measured to be less than 2.0 μM)
CC(=O)N1CC2(CCN(C3CCNCC3)CC2)c2cc(F)ccc21 [compound 547] |  |  |  |  | 25 to 100 | x (activity was measured to be greater than 5.0 μM) | 25 to 100 | xx (activity was measured to be between 2.0 μM and 5.0 μM) |  | 
CCOC(=O)N1CCC(N2CCC3(CC2)CN(c2cccc(OC)c2)c2ccc(F)cc23)CC1 [compound 838] |  |  |  |  | 25 to 100 |  | 25 to 100 |  | xxx (activity was measured to be less than 2.0 μM) | xxx (activity was measured to be less than 2.0 μM)
CC(=O)N1CC2(CCN(C3CCN(c4nncs4)CC3)CC2)c2ccccc21 [compound 973] |  |  |  |  | < 25 |  | 25 to 100 |  | x (activity was measured to be greater than 5.0 μM) | x (activity was measured to be greater than 5.0 μM)
CN(C)C(=O)N1CC2(CCN(C3CCN(C(=O)C4CC4)CC3)CC2)c2cc(F)ccc21 [compound 701] |  |  |  |  | 25 to 100 | xxx (activity was measured to be less than 2.0 μM) | 25 to 100 | xxx (activity was measured to be less than 2.0 μM) |  | 
CC(=O)N[C@H]1CC2(CCN(C3CCCCCCC3)CC2)c2ccccc21 [compound 261] | x (activity was measured to be greater than 1.0 μM) | < 65 | xx (activity was measured to be between 0.1 μM and 1.0 μM) | < 65 |  |  |  |  |  | 
CC(C)OC(=O)N1C2CCC1CC(N1CCC3(CC1)CN(S(C)(=O)=O)c1ccc(F)cc13)C2 (stereo not drawn) [compound 170] | x (activity was measured to be greater than 1.0 μM) | > 85 | xx (activity was measured to be between 0.1 μM and 1.0 μM) | 65 to 85 |  |  |  |  |  | 
CCOC(=O)N1CCC(N2CCC3(CC2)CN(C(C)=O)c2ccc(-c4ccccc4C#N)cc23)CC1 [compound 277] | x (activity was measured to be greater than 1.0 μM) | < 65 | xxx (activity was measured to be less than 0.1 μM) | 65 to 85 |  |  |  |  |  | 
CN(C)C(=O)N[C@H]1CC2(CCN(CCC3CC4CC[C@@H]3C4)CC2)c2ccccc21 (stereo partly drawn) [compound 687] |  |  |  |  | < 25 | x (activity was measured to be greater than 5.0 μM) | < 25 | x (activity was measured to be greater than 5.0 μM) |  | 
COc1ccc(N2CCC(N3CCC4(CC3)CN(C(=O)N(C)C)c3ccc(F)cc34)CC2)nn1 [compound 760] |  |  |  |  | 25 to 100 | xxx (activity was measured to be less than 2.0 μM) | 25 to 100 | x (activity was measured to be greater than 5.0 μM) |  | 

— patent US7786141B2 (Vertex Pharmaceuticals Incorporated, priority 2004, dated 2010)
